Data reported in patent US20090286781A1, “Use of Suluble Guanylate Cyclase Acitvators for Treating Acute and Chronic Lung Diseases” (Bayer HealtHCare AG, priority 2005, published 2009).

Test system: male C57B1/6J mice subjected to hypoxia (10% O2)
Assay: Hypoxia model of experimental pulmonary hypertension
Format: in vivo
Conditions: hypoxia (10% O2) for 7 or 10 days; 300 ppm of compound in the feed for 10 days; lung histology; compared with the hypoxia control animals (FIG. 1)
From the text: The method for investigating the effect of the compound (IV) of the invention in the model of experimental pulmonary hypertension was as described (Dumitrascu R, Weissmann N, Ghofrani H A, Beuerlein K, Schmidt H H H W, Stasch J P, Gnoth M J, Seeger W, Grimminger F, Schermuly R T, Activation of soluble guanylate cyclase reverses lung vascular remodeling and pulmonary hypertension evoked by hypoxia in mice, Circulation 2006, 113: 286-295). For this purpose, male C57B1/6J mice (Charles River Laboratories) were subjected to hypoxia (10% O2) for 7 or 10 days. The control animals were kept in a normal oxygen environment. The mice were treated for 10 days with 300 ppm of compound (IV) in the feed. At the end of the test, the mice were sacrificed and the lungs were isolated. Histological workup and evaluation was carried out as in the abovementioned publication.

For `COC(=O)N(C)c1c(N)nc(-c2nn(Cc3ccccc3F)c3ncccc23)nc1N` [Compound (IV)], the “non-muscularized and partly muscularized fraction of the pulmonary vessels” value was “significantly reduced”.
